pIC50: −log10 of the molar value.
How the values were obtained:
[1] = biological target: T1, Recombinant human BACE1 (Homo sapiens, UniProt P56817); test: Assay of BACE1 inhibiting activity; assay type: biochemical; conditions: 50% inhibitory concentration against enzymatic activity of recombinant human BACE1; Table 2
T1 construct: purchased R&D Systems

[2] = system: Neuroblastoma SH-SY5Y cells (SH/APPwt) with human wild-type β-APP excessively expressed; test: Measurement of β-amyloid (Aβ) production inhibitory effect in cell; assay type: cell-based; conditions: amount needed to inhibit Aβ production by 50%, SH/APPwt cells, 24 hours, Table 3, read-out: IC50
Method: Neuroblastoma SH-SY5Y cells (SH/APPwt) with human wild-type β-APP excessively expressed therein were prepared at 8×10^5 cells/mL, and 150 μl portions thereof were inoculated into each well of a 96-well culture plate (Falcon). The cells were cultured for 2 hours at 37° C. in a 5% gaseous carbon dioxide incubator. Then, a solution which had been preliminarily prepared by adding and suspending the test compound (DMSO (dimethyl sulfoxide) solution) so as to be 2 μl/50 μl medium was added to the cell sap. Namely, the final DMSO concentration was 1%, and the amount of the cell culture was 200 μl. After the incubation was performed for 24 hours from the addition of the test compound, 100 μl of the culture supernatant was collected from each fraction. The amount of the Aβ in each fraction was measured.
The Aβ amount was measured as follows. 10 μl of a homogeneous time resolved fluorescence (HTRF) measurement reagent (Amyloid β 1-40 peptide; IBA Molecular Holding, S. A.) and 10 μl of the culture supernatant were put into a 384-well half area microplate (black microplate, Costar) and mixed with each other, and then left standing overnight at 4° C. while the light was shielded. Then, the fluorescence intensity (excitation wavelength: 337 nm, measurement wavelength: 620 nm and 665 nm) was measured with a Wallac 1420 multilabel counter (Perkin Elmer life sciences).

[3] = Brain distribution studies; assay type: in vivo; conditions: brain/plasma; rat, intravenous 0.5 mg/mL/kg, 30 minutes later; read-out: brain Kp value (area ratio brain/plasma)
Method: Intravenous administration is carried out to a rat by 0.5 mg/mL/kg dosage of the compound. […] Then, the brain was extracted and 20-25% of homogenate thereof was prepared with distilled water. On the other hand, the obtained blood is used as plasma after centrifuging. Then, to the brain sample was added the control plasma at 1:1. To the plasma samples was added the control brains at 1:1. Each sample was measured using LC/MS/MS. The obtained area ratio (a brain/plasma) was used for the brain Kp value.

T1 sequence (P56817 46-501): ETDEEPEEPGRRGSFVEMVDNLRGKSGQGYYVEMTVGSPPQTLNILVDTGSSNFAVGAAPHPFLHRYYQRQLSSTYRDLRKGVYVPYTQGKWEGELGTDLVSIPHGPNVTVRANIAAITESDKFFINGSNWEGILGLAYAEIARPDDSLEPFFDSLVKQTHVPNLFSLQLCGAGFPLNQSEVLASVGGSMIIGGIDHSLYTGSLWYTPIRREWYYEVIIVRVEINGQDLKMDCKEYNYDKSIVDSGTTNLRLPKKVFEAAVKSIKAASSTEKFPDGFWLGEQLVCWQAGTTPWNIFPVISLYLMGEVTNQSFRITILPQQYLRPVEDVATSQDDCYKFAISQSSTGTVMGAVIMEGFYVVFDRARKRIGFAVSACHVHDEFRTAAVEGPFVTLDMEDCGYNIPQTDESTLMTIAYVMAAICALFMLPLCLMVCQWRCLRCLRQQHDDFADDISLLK

pIC50 [1]: 7.00
pIC50 [2]: 8.05
Kp at 0.5 h [3]: 2.2
SMILES: C[C@@]1(c2cc(Nc3ncccc3C#N)ccc2F)CCSC(N)=N1 [Compound I-11]

From US20120238557A1, “AMINOTHIAZINE OR AMINOOXAZINE DERIVATIVE HAVING AMINO LINKER” (SHIONOGI & CO., LTD., priority 2009, published 2012)
